ChEMBL document CHEMBL3044865, “Herbicidal Activity and Characteristics of Pyraflufen-ethyl for Controlling Broad-leaved Weeds in Cereals” (J Pestic Sci, 2002)
Calls of active or inactive are those of the source. No cut-off for these calls is given here.

Tests used:
[1] = tested on: Triticum aestivum; test: Phytotoxicity in Triticum aestivum (wheat) assessed as injury at 300 g/ha pre emergence application measured after 21 days after treatment; format: organism-based; settings: in vivo, other, 504 h
[2] = tested on: Stellaria media; test: Ratio of compound ED90 to ioxynil ED90 for herbicidal activity against Stellaria media
[3] = tested on: Hordeum vulgare; test: Phytotoxicity in Hordeum vulgare (barley) assessed as injury at 100 g/ha pre emergence application measured after 21 days after treatment; format: organism-based; settings: in vivo, other, 504 h
[4] = biological target: T1, Protoporphyrinogen oxidase (Medicago truncatula) (UniProt G7L3C0); test: Inhibition of Viola arvensis protoporphyrinogen oxidase by post-emergence herbicidal activity assay
T1 sequence (whole entry): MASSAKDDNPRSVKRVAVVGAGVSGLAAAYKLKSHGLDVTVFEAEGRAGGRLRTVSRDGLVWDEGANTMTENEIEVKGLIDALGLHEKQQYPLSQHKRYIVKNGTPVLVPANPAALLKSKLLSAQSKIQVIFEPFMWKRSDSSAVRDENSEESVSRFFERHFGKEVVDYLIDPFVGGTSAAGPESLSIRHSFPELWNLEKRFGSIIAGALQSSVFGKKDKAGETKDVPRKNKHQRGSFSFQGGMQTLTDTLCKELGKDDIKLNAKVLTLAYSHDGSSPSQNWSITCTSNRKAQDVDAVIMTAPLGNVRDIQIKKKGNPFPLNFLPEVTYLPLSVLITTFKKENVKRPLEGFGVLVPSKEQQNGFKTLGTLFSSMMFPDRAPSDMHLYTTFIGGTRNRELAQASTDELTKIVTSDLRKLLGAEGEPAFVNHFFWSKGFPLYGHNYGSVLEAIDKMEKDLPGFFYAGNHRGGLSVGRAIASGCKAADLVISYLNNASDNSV

[5] = tested on: Avena fatua; test: Herbicidal activity against Avena fatua assessed as killing at 10 g/ha post emergence application measured after 21 days after treatment; format: functional
[6] = tested on: Avena fatua; test: Herbicidal activity against Avena fatua assessed as killing at 1 g/ha post emergence application measured after 21 days after treatment; format: functional
[7] = tested on: Hordeum vulgare; test: Phytotoxicity in Hordeum vulgare (barley) assessed as injury at 10 g/ha post emergence application measured after 21 days after treatment; format: organism-based; settings: in vivo, other, 504 h
[8] = tested on: Veronica hederifolia; test: Herbicidal activity against Veronica hederaefolia assessed as killing at 300 g/ha post emergence application measured after 21 days after treatment; format: functional
[9] = tested on: Viola arvensis; test: Herbicidal activity against Viola arvensis assessed as killing at 30 g/ha post emergence application measured after 21 days after treatment; format: functional
[10] = Ratio of compound ED90 to […] ED90 for herbicidal activity against Matricaria inodora
[11] = tested on: Viola arvensis; test: Herbicidal activity against Viola arvensis assessed as killing at 5 g/ha measured after 21 days after treatment under greenhouse by time-course analysis; format: functional
[12] = tested on: Viola arvensis; test: Herbicidal activity against Viola arvensis assessed as killing at 10 g/ha pre emergence application measured after 21 days after treatment; format: functional
[13] = tested on: Veronica hederifolia; test: Herbicidal activity against Veronica hederaefolia assessed as killing at 3 g/ha post emergence application measured after 21 days after treatment; format: functional
[14] = tested on: Hordeum vulgare; test: Phytotoxicity in Hordeum vulgare (barley) assessed as injury at 10 g/ha pre emergence application measured after 21 days after treatment; format: organism-based; settings: in vivo, other, 504 h
[15] = biological target: T2, Protoporphyrinogen oxidase 2 (Spinacia oleracea) (UniProt Q94IG7); test: Inhibition of Stellaria media protoporphyinogen oxidase assessed as herbicidal activity at 0.3 g/ha measured after 2 days after treatment under greenhouse by time-course analysis; design: scale not given: the % may be the effect or the level left
T2 sequence (whole entry): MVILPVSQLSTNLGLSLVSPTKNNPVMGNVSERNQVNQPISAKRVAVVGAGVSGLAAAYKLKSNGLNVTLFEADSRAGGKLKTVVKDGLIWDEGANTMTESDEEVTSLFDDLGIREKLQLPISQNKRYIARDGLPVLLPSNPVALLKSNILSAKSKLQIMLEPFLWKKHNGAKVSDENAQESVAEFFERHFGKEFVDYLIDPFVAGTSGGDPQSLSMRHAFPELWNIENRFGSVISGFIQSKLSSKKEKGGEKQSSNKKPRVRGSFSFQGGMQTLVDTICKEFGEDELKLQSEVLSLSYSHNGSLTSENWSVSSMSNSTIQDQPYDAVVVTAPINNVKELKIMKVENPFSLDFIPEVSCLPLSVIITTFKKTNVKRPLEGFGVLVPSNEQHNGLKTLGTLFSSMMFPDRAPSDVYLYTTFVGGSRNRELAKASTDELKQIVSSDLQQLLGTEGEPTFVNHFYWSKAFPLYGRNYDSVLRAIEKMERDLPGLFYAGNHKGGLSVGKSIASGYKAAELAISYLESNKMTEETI

[16] = tested on: Avena fatua; test: Herbicidal activity against Avena fatua assessed as killing at 0.3 g/ha post emergence application measured after 21 days after treatment; format: functional, organism-based
[17] = tested on: Stellaria media; test: Herbicidal activity against Stellaria media assessed as killing at 1 g/ha post emergence application measured after 21 days after treatment; format: functional
[18] = tested on: Veronica hederifolia; test: Herbicidal activity against Veronica hederaefolia assessed as killing at 10 g/ha pre emergence application measured after 21 days after treatment; format: functional
[19] = tested on: Viola arvensis; test: Herbicidal activity against Viola arvensis assessed as killing at 10 g/ha post emergence application measured after 21 days after treatment; format: functional
[20] = tested on: Stellaria media; test: Herbicidal activity against Stellaria media assessed as killing at 3 g/ha post emergence application measured after 21 days after treatment; format: functional
[21] = tested on: Alopecurus myosuroides; test: Herbicidal activity against Alopecurus myosuroides assessed as killing at 100 g/ha post emergence application measured after 21 days after treatment; format: functional, organism-based
[22] = tested on: Veronica hederifolia; test: Herbicidal activity against Veronica hederaefolia assessed as killing at 10 g/ha post emergence application measured after 21 days after treatment; format: functional
[23] = tested on: Avena fatua; test: Herbicidal activity against Avena fatua assessed as killing at 3 g/ha post emergence application measured after 21 days after treatment; format: functional
[24] = tested on: Galium aparine; test: Herbicidal activity against Galium aparine assessed as killing at 10 g/ha pre emergence application measured after 21 days after treatment; format: functional
[25] = tested on: Alopecurus myosuroides; test: Herbicidal activity against Alopecurus myosuroides assessed as killing at 10 g/ha post emergence application measured after 21 days after treatment; format: functional
[26] = tested on: Hordeum vulgare; test: Phytotoxicity in Hordeum vulgare (barley) assessed as injury at 1 g/ha post emergence application measured after 21 days after treatment; format: organism-based; settings: in vivo, other, 504 h
[27] = tested on: Hordeum vulgare; test: Phytotoxicity in Hordeum vulgare (barley) assessed as injury at 30 g/ha pre emergence application measured after 21 days after treatment; format: organism-based; settings: in vivo, other, 504 h
[28] = tested on: Hordeum vulgare; test: Phytotoxicity in Hordeum vulgare (barley) assessed as injury at 300 g/ha pre emergence application measured after 21 days after treatment; format: organism-based; settings: in vivo, other, 504 h
[29] = tested on: Alopecurus myosuroides; test: Herbicidal activity against Alopecurus myosuroides assessed as killing at 10 g/ha pre emergence application measured after 21 days after treatment; format: functional, organism-based
[30] = tested on: Stellaria media; test: Herbicidal activity against Stellaria media assessed as killing at 300 g/ha post emergence application measured after 21 days after treatment; format: functional
[31] = tested on: Veronica hederifolia; test: Herbicidal activity against Veronica hederaefolia assessed as killing at 1 g/ha post emergence application measured after 21 days after treatment; format: functional
[32] = tested on: Triticum aestivum; test: Phytotoxicity in Triticum aestivum (wheat) assessed as injury at 1 g/ha post emergence application measured after 21 days after treatment; format: organism-based; settings: in vivo, other, 504 h
[33] = tested on: Galium aparine; test: Herbicidal activity against Galium aparine assessed as killing at 12 g/ha measured after 21 days after treatment by time-course analysis; format: functional
[34] = tested on: Viola arvensis; test: Herbicidal activity against Viola arvensis assessed as killing at 100 g/ha post emergence application measured after 21 days after treatment; format: functional

CCOC(=O)COc1cc(-c2nn(C)c(OC(F)F)c2Cl)c(F)cc1Cl [PYRAFLUFEN-ETHYL]
Activity [1]: 11% | Ratio [2]: 166 | Activity [3]: 1% | ED90 [4]: 5 gAi/ha | Activity [5]: 21% | Activity [6]: 1% | Activity [7]: 11% | Activity [8]: 80% | Activity [9]: 40% | Ratio [10]: 3330 | Activity [11]: 90% | Activity [12]: 11% | Activity [13]: 100% | Activity [14]: Non-toxic | Activity [15]: 90% | Activity [16]: inactive | Activity [17]: 100% | Activity [18]: 1% | Activity [19]: 100% | Activity [20]: 100% | Activity [21]: inactive | Activity [22]: 100% | Activity [23]: 1% | Activity [24]: 11% | Activity [25]: 11% | Activity [26]: Non-toxic | Activity [27]: Non-toxic | Activity [28]: 21% | Activity [29]: inactive | Activity [30]: 100% | Activity [31]: 90% | Activity [32]: Non-toxic | Activity [33]: >90% | Activity [34]: 40%
